From PubChem BioAssay AID2305 (GlaxoSmithKline (GSK), 2010)
Several values for one entry are separate records, joined by “and”; a condition that tells them apart may be missing. Equal entries are not always repeated.

The molecules below were run on P. falciparum 3D7 growth, pLDH absorbance (assay: P. falciparum 3D7 growth inhibition, dose response, strain 3D7 (AID 2305)).

| Structure (SMILES) | IC50 |
| --- | --- |
| COCCNCc1cccc(-c2ccc(CNC3CCN(Cc4ccccc4)CC3)cc2)c1 | 510 nM |
| COc1ccc(CNCc2ccc(F)cc2)cc1-c1ccc(S(=O)(=O)NCCN2CCCC2)c(C)c1 | 730 nM |
| COc1ccc(CNC(=O)NC2CCN(c3ccnc(Nc4ccc(F)cc4)n3)CC2)cc1 | 1050 nM |
| CCCNC[C@@H](O)[C@H](Cc1ccccc1)NC(=O)c1cc(NCC)cc(N2CCCCS2(=O)=O)c1 | 220 nM |
| CS(=O)(=O)c1cccc(-c2ccc3oc(C(N)=O)c(NC(=O)c4cccs4)c3c2)c1 | 590 nM |
| CN1CCN(c2ccnc3ccc(NC(=O)Cc4ccc5ccccc5c4)cc23)CC1 | 760 nM |
| Cc1c(CN2CCC(N3CCC(C(=O)NC4CC4)CC3)CC2)[nH]c2c(Cl)cccc12 | 1190 nM |
| OCCN1CCN(Cc2ccc(-c3ccc(-c4nc5ccccc5[nH]4)cc3)cc2)CC1 | 620 nM |
| O=C(Nc1cccc(-c2nn3ccccc3c2-c2ccnc(Nc3ccc(Cc4ccncc4)cc3)n2)c1)c1c(F)cccc1F | 300 nM |
| Cn1cccc1C(=O)C(=O)Nc1cccc(-c2ccc(-c3nc4ccc(C(F)(F)F)cc4[nH]3)cc2)c1 | 790 nM |
| CS(=O)(=O)Nc1ccc2[nH]cc(C3C[C@H]4CC[C@@H](C3)N4CC3CCC(NC(=O)/C=C/c4ccc(Cl)c(Cl)c4)CC3)c2c1 (stereo partly drawn) | 870 nM |
| Cc1cccc(NC(=O)c2ccc(C(=O)NC3CCN(CC4CCCCC4)C3)cc2)c1 (stereo not drawn) | 920 nM |
| CC(C)CCN1CCC(Oc2ccc(NC(=O)c3ccc(F)cc3)cc2Cl)CC1 | 720 nM |
| N#Cc1ccc2c(c1)CCN(CCC1CCC(NC(=O)c3cccc(-c4ccc(F)cc4)c3)CC1)CC2 (stereo not drawn) | 820 nM |
| CC(C)CNCc1cccc(-c2cccc(CN(CCCN3CCN(C)CC3)C(=O)CCC3CCCC3)c2)c1 | 620 nM |
| CC1CC1C(=O)NC1CCN(CC2(c3ccccc3)CCCCC2)CC1 (stereo not drawn) | 640 nM |
| Cc1ccccc1CNC(=O)Nc1cccc(-c2csc(N=C(N)N)n2)c1 | 700 nM |
| CC(Oc1ccc(Cl)cc1)C(=O)NCCC1CCN(CCCCCNC(=O)/C=C/c2ccc(Cl)c(Cl)c2)CC1 (stereo not drawn) | 1020 nM |
| CN(C)Cc1cccc(-c2ccc(NC(=O)c3ccc4c(=O)n(C5CCCCC5)cnc4c3)cc2)c1 | 740 nM |
| Cc1nc2ccc3ccc(CNc4ccc5c(c4)CN([C@@H](CCC(=O)O)C(=O)O)C5=O)cc3c2c(=O)[nH]1 | 160 nM |
| O=C(Cn1c(CCc2cccc(F)c2F)cc(=O)c2ccccc21)N(Cc1ccc(-c2ccc(C(F)(F)F)cc2)cc1)C1CCN(CCN2CCOCC2)CC1 | 720 nM |
| COc1ccc(C2C(C(=O)Nc3ccc(C)cc3Br)c3ccccc3C(=O)N2C)cc1 (stereo not drawn) | 940 nM |
| Cc1cccc2[nH]c(-c3cccc(-c4ccc(NC(=O)Nc5ccc6c(c5)OCO6)cc4)c3)nc12 | 140 nM |

| Structure (SMILES) | IC50 |
| --- | --- |
| CC(C)CCCC(C)(C)NC[C@@H](O)[C@H](Cc1ccccc1)NC(=O)c1cccc(OCC2CC2)c1 | 840 nM |
| O=C(Cc1ccccc1)NC(CCN1CCC(N(C2CC2)S(=O)(=O)c2cccc(C(F)(F)F)c2)CC1)c1ccc(Cl)c(Cl)c1 (stereo not drawn) | 1270 nM |
| COc1ccc(CC(=O)NC2CCN(c3ccnc4cc(Cl)ccc34)C2)cc1 (stereo not drawn) | 240 nM |
| COc1ccc2sc(CNCCCNc3cc(=O)c4ccccc4[nH]3)c(Cl)c2c1 | 1070 nM |
| COc1ccc(Cn2c(N3CCN(S(=O)(=O)c4ccc(OC)cc4)CC3)nc3c2c(=O)n(CC2CC2)c(=O)n3CC2CC2)cc1 | 890 nM |
| O=C(/C=C/c1ccc(Cl)c(Cl)c1)NCCCCCN1CCN(C(=O)Nc2ccc(OC(F)F)cc2)CC1 | 950 nM |
| CN(C)CCNC(=O)NC1CN(c2ncnc3cc(-c4ccccc4)sc23)C1 | 580 nM |
| CC(CCCC(=O)Nc1ccc(CC(C)NCCc2cccc(Cl)c2)cc1)NCCc1cccc(Cl)c1 (stereo not drawn) | 620 nM |
| CCCCOC(C(=O)OCC1CCCN1C)(c1ccccc1)c1ccccc1 (stereo not drawn) | 790 nM |
| c1ccc(CCNCc2ccc(-c3ccc(CNC4CCN(Cc5ccccc5)CC4)cc3)nc2)cc1 | 450 nM |
| COc1ccccc1CCNc1nc(C)cc(NCCC(=O)NCCOc2ccccc2)n1 | 1370 nM |
| COc1cc(NC(=O)CCCN2CCN(c3cccc(Cl)c3Cl)CC2)ccc1N1CCN(C(C)C)CC1 | 950 nM |
| CC(=O)Oc1c(C2CCN(CCCCNC(=O)c3ccc(NC(=O)c4ccc(Cl)cc4)cc3)CC2)ccc2ccccc12 | 880 nM |
| COc1ccc2c(NN=Cc3ccncc3)ccnc2c1 | 960 nM |
| COc1ccc2nc(C)cc(NN=Cc3cccc(Cl)c3)c2c1 | 630 nM |
| O=C(C=Cc1ccccc1Br)NC1CCC(CN2CCC(c3c[nH]c4ccccc34)CC2)CC1 (stereo not drawn) | 740 nM and 690 nM |
| COCCNCc1ccc(-c2cccc(CN(C(=O)NCCc3ccccc3)C3CCN(Cc4ccccc4)CC3)c2)cc1 | 920 nM |
| CCN(C(=O)c1ccc(NC(=O)c2cccs2)cc1)c1nc2c(C)cccc2s1 | 850 nM |
| CS(=O)(=O)c1ccc(CCNCc2ccc(-c3ccc(CN(C(=O)c4ccco4)C4CCN(Cc5ccccc5)CC4)cc3)nc2)cc1 | 880 nM |
| O=C(Cc1ccc(-c2ccccc2)cc1)N[C@H]1CCN(Cc2ccc(OCCCN3CCCCC3)cc2)C1 | 770 nM |
| O=C(c1ccccc1N=Nc1c(-c2ccccc2)[nH]n(-c2ccccc2)c1=O)N1CCOCC1 | 350 nM |
| Cc1cc(C)c(-c2n[nH]c3c2C(c2cccc(Cl)c2)N(Cc2ccco2)C3=O)c(O)c1 (stereo not drawn) | 1010 nM |
| Cc1ccc(CNC(=O)[C@H](Cc2ccccc2)Nc2ccnc(NCC3CCCCC3)n2)cc1 | 1190 nM |

| Structure (SMILES) | IC50 |
| --- | --- |
| CCCCCCN1CCC(NCc2cccc(-n3ccnc3)c2)CC1 | 250 nM |
| CCn1c(Cc2ccccc2)nnc1SCC(=O)N1c2ccccc2Sc2ccccc21 | 590 nM |
| Cc1ccc(Cn2nc(Cl)c(N3CCNCC3)cc2=O)cc1NC(=O)Nc1ccc(-c2ccccc2)cc1 | 680 nM |
| Cc1ccc(-c2nnc(Nc3ccc(C(=O)N4CCCCC4)cc3)c3ccccc23)cc1S(=O)(=O)NCC1CCCO1 (stereo not drawn) | 710 nM |
| COc1ccc(CCc2ccc(-c3c(C)[nH]c(C)c(Cl)c3=O)cc2)cc1OC | 90 nM |
| CCOP(=O)(OCC)c1ccc(OC)c(-c2ccc[nH]2)c1 | 1190 nM |
| Cc1c(CNCCN2CCCCC2)c(C(=O)O)c(C)n1Cc1ccc(Cl)cc1 | 420 nM |
| O=c1cc(NCCCNCc2[nH]c3cc(Cl)cc(Cl)c3c2Cn2cccn2)[nH]c2ccccc12 | 970 nM |
| NC(N)=NC(=O)Nc1cc(Cl)c(Cl)c(Cl)c1 | 590 nM |
| CN(c1cc(NC(=O)c2ccc(F)cc2)ccn1)C1CCN(Cc2cccc(F)c2)CC1 | 490 nM |
| COc1ccc2nccc([C@@H](O)CN3CCC(NC(=O)Cn4nc(-c5ccc(C(F)(F)F)cc5)ccc4=O)CC3)c2c1 | 740 nM |
| COc1ccc(C)cc1NC(=O)CSc1nc2cccnc2n1C1CCCCC1 | 540 nM |
| CC(C)CCN1CCCN(Cc2cccc(NC(=O)c3ccc(-c4ccccc4)cc3)c2)CC1 | 890 nM |
| COc1ccc(C2CC(=O)C3=C(C2)NC(C)=C(C(=O)OC(C)C)C3c2c(F)cccc2Cl)cc1OC (stereo not drawn) | 820 nM |
| c1ccc(Oc2ccc(Nc3ccnc(Nc4ccc(OCCN5CCCCC5)cc4)n3)cc2)cc1 | 600 nM |
| CCCCCN1CCC(NC(=O)c2ccc(C(=O)Nc3ccc(C(C)C)cc3)cc2)CC1 | 850 nM |
| Nc1nc(Nc2cccc(O)c2)nc2ccccc12 | 790 nM |
| CN1c2ccc([N+](=O)[O-])cc2C(C)(C)C12C=Cc1cc(Br)cc([N+](=O)[O-])c1O2 (stereo not drawn) | 780 nM |
| Ic1cc(Nc2ncnc3ccsc23)ccc1OCc1ccccc1 | 770 nM |
| CCOc1ccc(NC(=O)c2ccc(NCCCN3CC(C)CC(C)C3)c([N+](=O)[O-])c2)cc1 (stereo not drawn) | 710 nM |
| Oc1ccc(CCNc2nc(NCc3ccc4cc(Cl)ccc4c3)nc(N3CCNCC3)n2)cc1 | 1020 nM |
| CC1(C)N=C(N)N=C(N)N1c1ccccc1 | 330 nM |
